# From DBAASP
# Columns and labels:
# Assay in all cases: ≥ marks a high value that may be exact or a test limit, other limits are often not marked, values filed in µg/mL are converted to µM
# [1] = test system: Pseudomonas syringae pv. tomato DC3000
# [2] = test system: Pseudomonas syringae pv. syringae DSM 10604
# [3] = test system: Pseudomonas corrugata DSM 7228
# [4] = test system: Clavibacter michiganensis subsp. michiganensis DSM 46294
# [5] = test system: Pectobacterium carotovorum subsp. carotovorum DSM 30168
# [6] = test system: Xanthomonas vesicatoria DSM 50861
# [7] = test system: Shigella dysenteriae ATCC 9752
# [8] = test system: Salmonella enterica subsp. enterica serovar Typhimurium ATCC 14028
# [9] = test system: Staphylococcus epidermidis ATCC 12228
# [10] = test system: Klebsiella pneumoniae ATCC 10031
# [11] = test system: Staphylococcus aureus ATCC 6538P
# [12] = test system: Bacillus subtilis ATCC 6633
# [13] = test system: Escherichia coli ATCC 25922
# [14] = test system: Pseudomonas aeruginosa ATCC 27853
# Escherichia coli K-12 = test system: Escherichia coli K-12
# [15] = test system: Staphylococcus aureus USA 300
# [16] = test system: Staphylococcus aureus ATCC 25923
# [17] = test system: Bacillus subtilis ATCC 23857
# [18] = test system: Staphylococcus aureus ATCC 29213
# Bacillus megaterium = test system: Bacillus megaterium
# [19] = test system: Staphylococcus aureus ATCC 2592
# Klebsiella pneumoniae = test system: Klebsiella pneumoniae
# Shigella dysenteriae = test system: Shigella dysenteriae
# [20] = test system: Candida albicans ATCC 2002
# [21] = test system: Pseudomonas aeruginosa CMCCB 10104
# Leuconostoc lactis = test system: Leuconostoc lactis
# Listeria innocua = test system: Listeria innocua
# [22] = test system: Staphylococcus aureus ATCC 6538
compound,measurement,setting,value
CC(C)C[C@H](NC(=O)[C@H](C)NC(=O)[C@H](Cc1ccccc1)NC(=O)[C@H](CCCN=C(N)N)NC(=O)[C@H](Cc1ccccc1)NC(=O)[C@H](C)NC(=O)[C@H](CCCN=C(N)N)NC(=O)[C@H](Cc1ccccc1)NC(=O)[C@H](C)NC(=O)[C@H](CC(C)C)NC(=O)[C@H](CCCCN)NC(=O)[C@H](CCCN=C(N)N)NC(=O)[C@H](CCCN=C(N)N)NC(=O)[C@@H](N)CCCCN)C(=O)N[C@@H](CCCCN)C(=O)N[C@@H](C)C(=O)N[C@H](C(=O)N[C@@H](CC(C)C)C(=O)N[C@@H](CCCCN)C(=O)N[C@@H](CCCCN)C(N)=O)C(C)C [KRRKLAFRAFRFALKAVLKK],MIC,[1],1.02 µM
same,MIC,[2],0.204 µM
same,MIC,[3],0.102 µM
same,MIC,[4],0.204 µM
same,MIC,[5],4.08 µM
same,MIC,[6],0.102 µM
NCCCC[C@H](NC(=O)[C@H](Cc1ccccc1)NC(=O)[C@H](Cc1ccccc1)NC(=O)[C@H](CCCCN)NC(=O)[C@H](Cc1ccccc1)NC(=O)[C@H](CCCCN)NC(=O)[C@H](CCCCN)NC(=O)[C@H](CCCCN)NC(=O)[C@@H](N)CCCN=C(N)N)C(=O)N[C@@H](CCCN=C(N)N)C(=O)N[C@@H](Cc1ccccc1)C(=O)N[C@@H](Cc1ccccc1)C(N)=O [RKKKFKFFKRFF],MIC,[1],1.46 µM
same,MIC,[2],0.0586 µM
same,MIC,[3],0.0586 µM
same,MIC,[4],0.146 µM
same,MIC,[5],5.86 µM
same,MIC,[6],0.293 µM
CC(C)C[C@H](NC(=O)[C@H](Cc1c[nH]c2ccccc12)NC(=O)[C@H](CCCCN)NC(=O)[C@H](CCCCN)NC(=O)[C@@H](N)CC(C)C)C(=O)N[C@@H](CCCCN)C(N)=O [LKKWLK],MIC,[7],≥ 245 µM
same,MIC,[8],> 245 µM
same,MIC,[9],> 245 µM
same,MIC,[10],≥ 245 µM
same,MIC,[11],≥ 245 µM
same,MIC,[12],≥ 245 µM
same,MIC,[13],> 245 µM
same,MIC,[14],> 245 µM
CC[C@H](C)[C@H](NC(=O)[C@H](CCCN=C(N)N)NC(=O)[C@H](CCC(N)=O)NC(=O)[C@@H](NC(=O)[C@@H](NC(=O)[C@H](CCCN=C(N)N)NC(=O)[C@H](CCCN=C(N)N)NC(=O)[C@H](Cc1ccccc1)NC(=O)[C@H](CCC(=O)O)NC(=O)CN)[C@@H](C)CC)C(C)C)C(=O)N[C@@H](CCCN=C(N)N)C(=O)N[C@@H](CC(=O)O)C(=O)N[C@@H](Cc1ccccc1)C(=O)N[C@@H](CC(C)C)C(=O)N[C@@H](CCCN=C(N)N)C(=O)N[C@@H](CC(N)=O)C(=O)N[C@@H](CC(C)C)C(=O)N[C@H](C(N)=O)C(C)C [GEFRRIVQRIRDFLRNLV],MIC,Escherichia coli K-12,≥ 60 µM
same,MIC,[15],30 µM
CC(C)C[C@H](NC(=O)[C@H](CC(C)C)NC(=O)[C@H](CCCCN)NC(=O)[C@H](CCCCN)NC(=O)[C@H](Cc1c[nH]c2ccccc12)NC(=O)[C@H](CCCN=C(N)N)NC(=O)[C@H](CCCCN)NC(=O)[C@H](CC(C)C)NC(=O)[C@H](CC(C)C)NC(=O)[C@@H](N)Cc1c[nH]c2ccccc12)C(N)=O [WLLKRWKKLL],MIC,[16],32 µM
same,MIC,[17],16 µM
same,MIC,[13],64 µM
same,MIC,[14],8 µM
CC[C@H](C)[C@H](N)C(=O)N[C@@H](CC(=O)O)C(=O)N[C@@H](Cc1c[nH]c2ccccc12)C(=O)N[C@@H](CCCCN)C(=O)N[C@@H](CCCCN)C(=O)N[C@@H](CC(C)C)C(=O)N[C@@H](CC(C)C)C(=O)N[C@@H](CC(=O)O)C(=O)N1CCC[C@H]1C(=O)N[C@@H](C)C(=O)N[C@@H](CCCCN)C(=O)N[C@@H](CCC(N)=O)C(=O)N[C@H](C(=O)N[C@@H](CC(C)C)C(N)=O)[C@@H](C)CC [IDWKKLLDPAKQIL],MIC,[17],≥ 128 µM
same,MIC,[9],512 µM
same,MIC,[18],1020 µM
same,MIC,[13],256 µM
CC[C@H](C)[C@H](NC(=O)CN)C(=O)NCC(=O)NCC(=O)N[C@H](C(=O)N[C@@H](CC(C)C)C(=O)N[C@@H](CC(C)C)C(=O)N[C@@H](CO)C(=O)N[C@@H](C)C(=O)NCC(=O)N[C@@H](CCCCN)C(=O)N[C@@H](C)C(=O)N[C@@H](C)C(=O)N[C@@H](CC(C)C)C(=O)N[C@@H](CCCCN)C(=O)NCC(=O)N[C@@H](CC(C)C)C(=O)N[C@@H](C)C(=O)N[C@@H](CCCCN)C(=O)N[C@H](C(=O)N[C@@H](CC(C)C)C(=O)N[C@@H](C)C(=O)N[C@@H](CCC(=O)O)C(=O)N[C@@H](CCCCN)C(=O)N[C@@H](Cc1ccc(O)cc1)C(=O)N[C@@H](C)C(=O)N[C@@H](CC(N)=O)C(N)=O)C(C)C)C(C)C [GIGGVLLSAGKAALKGLAKVLAEKYAN],MIC,Bacillus megaterium,0.574 µM
same,MIC,[19],1.03 µM
same,MIC,Klebsiella pneumoniae,5.74 µM
same,MIC,Shigella dysenteriae,1.03 µM
same,MIC,[20],5.74 µM
same,MIC,[13],1.03 µM
same,MIC,[21],1.03 µM
CC[C@H](C)[C@H](NC(=O)[C@H](CO)NC(=O)[C@H](CO)NC(=O)[C@@H](NC(=O)[C@H](CC(C)C)NC(=O)CN)C(C)C)C(=O)NCC(=O)N[C@@H](CCCCN)C(=O)N[C@H](C(=O)N[C@@H](CC(C)C)C(=O)NCC(=O)NCC(=O)N[C@@H](CC(C)C)C(=O)N[C@@H](CC(C)C)C(=O)N[C@@H](C)C(=O)N[C@@H](CC(=O)O)C(=O)N[C@H](C(=O)N[C@H](C(=O)N[C@@H](CCCCN)C(=O)N[C@@H](CO)C(=O)N[C@@H](CCCCN)C(=O)NCC(=O)N[C@@H](CCC(N)=O)C(=O)N1CCC[C@H]1C(=O)N[C@@H](C)C(=O)O)C(C)C)C(C)C)C(C)C [GLVSSIGKVLGGLLADVVKSKGQPA],MIC,Leuconostoc lactis,10.4 µM
same,MIC,Listeria innocua,≥ 41.8 µM
CC[C@H](C)[C@H](NC(=O)[C@H](CC(N)=O)NC(=O)[C@H](CCCN=C(N)N)NC(=O)[C@H](C)NC(=O)[C@H](CCSC)NC(=O)[C@H](CCCCN)NC(=O)[C@H](CCC(=O)O)NC(=O)[C@@H](NC(=O)[C@H](CCCCN)NC(=O)[C@H](CCCCN)NC(=O)[C@H](Cc1ccccc1)NC(=O)[C@@H](NC(=O)[C@H](CCCCN)NC(=O)[C@H](Cc1c[nH]c2ccccc12)NC(=O)[C@@H](N)CCCCN)C(C)C)[C@@H](C)CC)C(=O)N[C@@H](CCCN=C(N)N)C(=O)N[C@@H](CC(N)=O)C(=O)N[C@@H](CCCCN)C(=O)N[C@H](C(=O)N[C@H](C(=O)N[C@@H](CCCCN)C(N)=O)C(C)C)[C@@H](C)CC [KWKVFKKIEKMARNIRNKIVK],MIC,Escherichia coli K-12,6 µM
same,MIC,[22],> 12 µM
same,MIC,[14],> 3 µM
CC[C@H](C)[C@H](NC(=O)CN)C(=O)NCC(=O)NCC(=O)N[C@@H](CCCCN)C(=O)N[C@H](C(=O)N[C@@H](CC(C)C)C(=O)N[C@@H](CO)C(=O)NCC(=O)N[C@@H](CC(C)C)C(=O)N[C@@H](CCCCN)C(=O)N[C@H](C(=O)N[C@@H](C)C(=O)N[C@@H](CC(C)C)C(=O)N[C@@H](CCCCN)C(=O)NCC(=O)N[C@@H](C)C(=O)N[C@@H](C)C(=O)N[C@@H](CCCCN)C(=O)N[C@@H](CCC(=O)O)C(=O)N[C@@H](CC(C)C)C(=O)N[C@@H](C)C(=O)N[C@@H](CO)C(=O)N[C@H](C(=O)N[C@@H](Cc1ccc(O)cc1)C(=O)N[C@@H](CC(C)C)C(=O)N[C@@H](Cc1cnc[nH]1)C(=O)O)[C@@H](C)O)[C@@H](C)O)[C@@H](C)CC [GIGGKILSGLKTALKGAAKELASTYLH],MIC,Bacillus megaterium,0.334 µM
same,MIC,[19],1.15 µM
same,MIC,Klebsiella pneumoniae,1.15 µM
same,MIC,Shigella dysenteriae,0.334 µM
same,MIC,[20],5.56 µM
same,MIC,[13],0.334 µM
same,MIC,[21],0.556 µM
